Measured values taken from PubChem BioAssay (NCI).
Values joined by “and” are separate entries in the source; they are usually repeats but may differ in a detail not shown here. Identical values can stand only once.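 Each compound was tested at five concentrations against cells in 96-well plates for 48 hours. At the GI50, growth is halved. TGI is the concentration that stops growth completely.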

Tests used:
Experiment in all cases: growth of human tumour cells (NCI), 48 h
SNB-75 CNS = tested on: SNB-75 CNS
SF-295 CNS = tested on: SF-295 CNS
BT-549 breast = tested on: BT-549 breast
HT29 colon = tested on: HT29 colon
HCT-116 colon = tested on: HCT-116 colon
UO-31 renal = tested on: UO-31 renal
RPMI-8226 leukemia = tested on: RPMI-8226 leukemia
HCC-2998 colon = tested on: HCC-2998 colon
SF-268 CNS = tested on: SF-268 CNS
SNB-19 CNS = tested on: SNB-19 CNS

Compound: Oc1ccc(C=Nc2ccccc2O)cc1
- TGI (SNB-75 CNS): > 100000 nM
- TGI (SF-295 CNS): > 100000 nM
- TGI (BT-549 breast): > 100000 nM
- TGI (HT29 colon): > 100000 nM
- TGI (HCT-116 colon): > 100000 nM
- TGI (UO-31 renal): > 100000 nM
- TGI (RPMI-8226 leukemia): > 100000 nM
- TGI (HCC-2998 colon): > 100000 nM
- TGI (SF-268 CNS): > 100000 nM
- TGI (SNB-19 CNS): > 100000 nM

Compound: CNC(=O)c1c(C)oc2cc(Oc3ncnc4cc(OC)c(OC)cc34)ccc12
- GI50 (SNB-75 CNS): 2350 nM
- TGI (SNB-75 CNS): > 100000 nM
- GI50 (SF-295 CNS): > 100000 nM
- TGI (SF-295 CNS): > 100000 nM
- GI50 (BT-549 breast): > 100000 nM
- TGI (BT-549 breast): > 100000 nM
- GI50 (HT29 colon): > 100000 nM
- TGI (HT29 colon): > 100000 nM
- GI50 (HCT-116 colon): > 100000 nM
- TGI (HCT-116 colon): > 100000 nM
- GI50 (RPMI-8226 leukemia): > 100000 nM
- TGI (RPMI-8226 leukemia): > 100000 nM
- GI50 (HCC-2998 colon): > 100000 nM
- TGI (HCC-2998 colon): > 100000 nM
- GI50 (SF-268 CNS): > 100000 nM
- TGI (SF-268 CNS): > 100000 nM
- GI50 (SNB-19 CNS): > 100000 nM
- TGI (SNB-19 CNS): > 100000 nM

Compound: COc1c/c(=C2\C=c3ccccc3=N2)[nH]/c1=C\c1[nH]c(C)cc1C
- GI50 (SNB-75 CNS): 175 nM
- TGI (SNB-75 CNS): 4190 nM
- GI50 (SF-295 CNS): 34 nM
- TGI (SF-295 CNS): 593 nM
- GI50 (BT-549 breast): 31.9 nM
- TGI (BT-549 breast): 31300 nM
- GI50 (HT29 colon): < 10 nM
- TGI (HT29 colon): > 100000 nM
- GI50 (HCT-116 colon): < 36.8 nM
- TGI (HCT-116 colon): 1710 nM
- GI50 (UO-31 renal): < 10.6 nM
- TGI (UO-31 renal): 320 nM
- GI50 (RPMI-8226 leukemia): < 15.1 nM
- TGI (RPMI-8226 leukemia): 2900 nM
- GI50 (HCC-2998 colon): 185 nM
- TGI (HCC-2998 colon): 33700 nM
- GI50 (SF-268 CNS): 63.1 nM
- TGI (SF-268 CNS): 37700 nM
- GI50 (SNB-19 CNS): 2990 nM
- TGI (SNB-19 CNS): > 88700 nM

Compound: CC[C@H](C)[C@H](NC(=O)[C@H]1CCCCN1C)C(=O)N(C)[C@H](C[C@@H](OC(C)=O)c1cccc(C(=O)N[C@@H](Cc2ccccc2)C[C@H](C)C(=O)OC)n1)C(C)C
- GI50 (SNB-75 CNS): 3.66 nM and 4.79 nM
- TGI (SNB-75 CNS): > 25000 nM
- GI50 (SF-295 CNS): 4.33 nM and 2.5 nM
- TGI (SF-295 CNS): 7.76 nM
- GI50 (BT-549 breast): 2.5 nM
- TGI (BT-549 breast): 222 nM
- GI50 (HT29 colon): 1.82 nM and 2.5 nM
- TGI (HT29 colon): 42.1 nM
- GI50 (HCT-116 colon): 3.25 nM and 2.5 nM
- TGI (HCT-116 colon): > 25000 nM
- TGI (UO-31 renal): > 25000 nM
- GI50 (RPMI-8226 leukemia): 2.68 nM and 2.5 nM
- TGI (RPMI-8226 leukemia): 14500 nM
- GI50 (HCC-2998 colon): 3.62 nM and 2.5 nM
- TGI (HCC-2998 colon): > 25000 nM
- GI50 (SF-268 CNS): 4.98 nM and 6.61 nM
- TGI (SF-268 CNS): > 25000 nM
- GI50 (SNB-19 CNS): 4.61 nM and 2.5 nM
- TGI (SNB-19 CNS): > 25000 nM

Compound: Cc1c(C)n(CCCN2CCN(C)CC2)c2ccc(Oc3cccc(C(=O)N4CCN(CCc5ccc(F)cc5)CC4)c3)cc12
- GI50 (SNB-75 CNS): 1390 nM
- TGI (SNB-75 CNS): 2850 nM
- GI50 (SF-295 CNS): 1850 nM
- TGI (SF-295 CNS): 3330 nM
- GI50 (BT-549 breast): 1580 nM
- TGI (BT-549 breast): 3190 nM
- GI50 (UO-31 renal): 1230 nM
- TGI (UO-31 renal): 2520 nM
- GI50 (HCC-2998 colon): 1810 nM
- TGI (HCC-2998 colon): 3370 nM
- GI50 (SF-268 CNS): 1790 nM
- TGI (SF-268 CNS): 3780 nM
- GI50 (SNB-19 CNS): 1750 nM
- TGI (SNB-19 CNS): 3310 nM

Compound: COc1ccc(/C=C\c2cc(OC)c(OC)c(OC)c2)cc1OCC(=O)Nc1nc2ccc(F)cc2s1
- GI50 (SNB-75 CNS): 4390 nM
- TGI (SNB-75 CNS): > 100000 nM
- GI50 (SF-295 CNS): 4290 nM
- TGI (SF-295 CNS): > 100000 nM
- GI50 (BT-549 breast): 16700 nM
- TGI (BT-549 breast): > 100000 nM
- GI50 (HT29 colon): 9630 nM
- TGI (HT29 colon): > 100000 nM
- GI50 (HCT-116 colon): 4480 nM
- TGI (HCT-116 colon): > 100000 nM
- GI50 (UO-31 renal): 2560 nM
- TGI (UO-31 renal): > 100000 nM
- GI50 (RPMI-8226 leukemia): 6360 nM
- TGI (RPMI-8226 leukemia): > 100000 nM
- GI50 (HCC-2998 colon): > 100000 nM
- TGI (HCC-2998 colon): > 100000 nM
- GI50 (SF-268 CNS): 7230 nM
- TGI (SF-268 CNS): > 100000 nM
- GI50 (SNB-19 CNS): > 100000 nM
- TGI (SNB-19 CNS): > 100000 nM

Compound: C[C@@H](Oc1cc(-n2cnc3ccc(OC4CCN(C)CC4)cc32)sc1C(N)=O)c1ccccc1Cl
- GI50 (SNB-75 CNS): 61.4 nM
- TGI (SNB-75 CNS): 2890 nM
- GI50 (SF-295 CNS): 20.7 nM
- TGI (SF-295 CNS): 4340 nM
- GI50 (BT-549 breast): 168 nM
- TGI (BT-549 breast): 5280 nM
- GI50 (HT29 colon): 8.29 nM
- TGI (HT29 colon): 2770 nM
- GI50 (HCT-116 colon): 15.6 nM
- TGI (HCT-116 colon): 3150 nM
- GI50 (UO-31 renal): 1740 nM
- TGI (UO-31 renal): 5950 nM
- GI50 (RPMI-8226 leukemia): 84.2 nM
- TGI (RPMI-8226 leukemia): 6660 nM
- GI50 (HCC-2998 colon): 23.4 nM
- TGI (HCC-2998 colon): 2980 nM
- GI50 (SF-268 CNS): 22 nM
- TGI (SF-268 CNS): 4690 nM
- GI50 (SNB-19 CNS): 70 nM
- TGI (SNB-19 CNS): 13200 nM

Compound: COC(COC(N)=O)C1=C(N2CC2)C(=O)C(C)=C(N2CC2)C1=O (stereo unspecified)
- TGI (SNB-75 CNS): 322 nM
- TGI (SF-295 CNS): 413 nM
- TGI (BT-549 breast): 304 nM
- TGI (HT29 colon): 521 nM
- TGI (HCT-116 colon): 134 nM
- TGI (UO-31 renal): 79.6 nM
- TGI (RPMI-8226 leukemia): 3160 nM
- TGI (HCC-2998 colon): 311 nM
- TGI (SF-268 CNS): 624 nM
- TGI (SNB-19 CNS): 1750 nM

Compound: Cc1cc2nc(NCCN)n(Cc3ccc(F)c(Cl)c3)c2cc1C
- GI50 (SNB-75 CNS): 10600 nM
- TGI (SNB-75 CNS): 23400 nM
- GI50 (SF-295 CNS): 12800 nM
- TGI (SF-295 CNS): 26100 nM
- GI50 (BT-549 breast): 14800 nM
- TGI (BT-549 breast): 30200 nM
- GI50 (HT29 colon): 11700 nM
- TGI (HT29 colon): 24500 nM
- GI50 (HCT-116 colon): 2290 nM
- TGI (HCT-116 colon): 4700 nM
- GI50 (UO-31 renal): 10700 nM
- TGI (UO-31 renal): 24000 nM
- GI50 (RPMI-8226 leukemia): 3950 nM
- TGI (RPMI-8226 leukemia): 15100 nM
- GI50 (HCC-2998 colon): 1820 nM
- TGI (HCC-2998 colon): 3650 nM
- GI50 (SF-268 CNS): 11600 nM
- TGI (SF-268 CNS): 26000 nM
- GI50 (SNB-19 CNS): 13600 nM
- TGI (SNB-19 CNS): 28600 nM

Compound: Clc1c(Cl)[n+](Cc2ccc3ccccc3c2)cn1Cc1ccc2ccccc2c1
- GI50 (SNB-75 CNS): 836 nM
- TGI (SNB-75 CNS): 2210 nM
- GI50 (SF-295 CNS): 1400 nM
- TGI (SF-295 CNS): 2820 nM
- GI50 (BT-549 breast): 1670 nM
- TGI (BT-549 breast): 3090 nM
- GI50 (HT29 colon): 570 nM
- TGI (HT29 colon): 2010 nM
- GI50 (HCT-116 colon): 1450 nM
- TGI (HCT-116 colon): 2870 nM
- GI50 (UO-31 renal): 1720 nM
- TGI (UO-31 renal): 4560 nM
- GI50 (RPMI-8226 leukemia): 1250 nM
- TGI (RPMI-8226 leukemia): 3550 nM
- GI50 (HCC-2998 colon): 1530 nM
- TGI (HCC-2998 colon): 3050 nM
- GI50 (SF-268 CNS): 1220 nM
- TGI (SF-268 CNS): 2550 nM
- GI50 (SNB-19 CNS): 1320 nM
- TGI (SNB-19 CNS): 2700 nM
